{"source": "patent US10172876B2", "about": "“Use of ginsenoside M1 for treating IgA nephropathy” (priority 2014, dated 2019)", "key": {"[1]": {"test_system": "reactive oxygen species (ROS)", "assay": "Measurement of reactive oxygen species (ROS) in renal tissue of IgAN mice", "assay_type": "in vivo", "conditions": "vs disease control (FIG. 10)", "protocol": "(§1) B-cell-deficient mice were obtained from the Academia Sinica (Professor John T. Kung, Institute of Molecular Biology, Taipei, Taiwan) and maintained at the animal center of the National Defense Medical Center (Taipei, Taiwan). IgAN was induced by daily injection of purified IgA anti-phosphorylcholine antibodies and pneumococcal C-polysaccharide antigen (PnC). All animal experiments were performed with the approval of the Institutional Animal Care and Use Committee of the National Defense Medical Center and complied with the NIH Guide for the Care and Use of Laboratory Animals.\n(§2) Ginsenoside M1, 20-O-β-D-glucopyranosyl-20(S)-protopariaxadiol (named LCHK168 below), was prepared by methods known in the art, such as those described in Taiwan Patent Application No. 094116005 (1280982) and U.S. Pat. No. 7,932,057. […]\nTo measure ROS levels in renal tissue, the samples were incubated at room temperature with Krebs-Hepes buffer containing 1.25 mM lucigenin (Sigma, St. Louis, Mo., USA) as substrate, and luminescence counts were measured in duplicate at 15-s intervals on a multilabel microplate reader (Hidex). ROS activity was expressed as relative luminescence units (RLU) per 15 minutes per milligram of organ dry weight (i.e., RLU/15 min/mg) or as RLU/15 min/ml."}, "[2]": {"test_system": "mice model of IgA nephropathy (IgAN)", "assay": "IHC of renal tissue for infiltrating leukocytes and Collagen IV in IgAN mice", "assay_type": "in vivo", "conditions": "day 28, 60 mg/kg daily oral gavage", "protocol": "as §1\n(§3) Ginsenoside M1, 20-O-β-D-glucopyranosyl-20(S)-protopariaxadiol (named LCHK168 below), was prepared by methods known in the art, such as those described in Taiwan Patent Application No. 094116005 (1280982) and U.S. Pat. No. 7,932,057. The mice were treated daily with 60 mg/kg LCHK168 or with the vehicle, by oral gavage throughout the experiment, the first dose being given 2 day before disease induction.\nFor IHC, formalin-fixed and paraffin-embedded tissue sections or frozen sections were incubated overnight at 4. C with anti-bodies against CD3, F4/80, CD4, CD8, CD11c, Collagen IV, diluted in DAKO antibody dilution buffer (DAKO), and then for 1 h at room temperature with horseradish peroxidase (HRP)-conjugated second antibodies (DAKO) in the same buffer; in the case of the HRP-conjugated antibodies, DAB (DAKO) was also added. Hematoxylin was used to counterstain nuclei. Positive cells was counted at a magnification of 400× in 20 consecutive glomeruli or in 20 randomly selected fields of the tubule interstitial compartment in the cortical area by Pax-It quantitative image analysis software."}, "NLRP3": {"test_system": "NLRP3", "assay": "Western blot of NLRP3 in IgA-IC stimulated DCs", "assay_type": "cell-based, mouse", "conditions": "β-actin loading control (FIG. 14)", "protocol": "(§4) Dendritic cells (DCs) maturation was determined by the upregulation of costimulatory molecule expression. Cells were treated with IgA-IC, LCHK168 (1, 2 μM) and stained with mAbs specific for mouse CD40, CD80, and CD86 and then analyzed by flow cytometry.\nEach protein sample was run on a 8% SDS-PAGE gel and the proteins were electro blotted on to a polyvinylidene difluoride membrane, which was then incubated for 1 h at room temperature in blocking buffer (Tris-buffered saline containing 5% skim milk) and then overnight at 4° C. with rabbit antibodies against NLRP3 or β-actin. After being washed, the membrane was incubated for 1 h at room temperature with HRP-conjugated goat anti-rabbit IgG antibody in the same buffer; then bound antibody was detected using UVP Biospectrum."}, "[3]": {"test_system": "mice model of IgA nephropathy (IgAN)", "assay": "Urine protein and renal function in IgAN mice", "assay_type": "in vivo", "protocol": "as §1, §3\nBody weight was measured weekly. Urine samples were collected in metabolic cages weekly and urine protein was determined. Serum samples were collected on days 14 and 28 to measure serum levels of blood urea nitrogen (BUN) and creatinine (Cr). For renal histopathology, the tissues were fixed in 10% buffered formalin and embedded in paraffin, and then sections (3 μm) were prepared and stained with hematoxylin and eosin (H&E). The percentage of glomeruli showing proliferation, neutrophil infiltration, sclerosis, or periglomerular inflammation was determined by counting 50 randomly sampled glomeruli by light microscopy at a magnification of 400×."}, "TLR2": {"test_system": "TLR2", "assay": "Real-time RT-PCR of renal TLR2 mRNA in IgAN mice", "assay_type": "in vivo", "conditions": "60 mg/kg daily oral gavage", "protocol": "as §1, §3\nRenal cortex RNA was extracted using TRIzol reagent according to the manufacturer's instructions, and RT-PCR was used to measure TLR2 gene expression. […] Real-time quantification was performed using a Applied Biosystems according to the manufacturer's instructions. […]"}, "memory CD4+ T cells": {"test_system": "memory CD4+ T cells", "assay": "Flow cytometry of splenocytes for memory CD4+ T cells in IgAN mice", "assay_type": "in vivo", "conditions": "60 mg/kg daily oral gavage, vs disease control (FIG. 11)", "protocol": "as §1, §2\nSplenocytes from the mice were treated with Tris-buffered ammonium chloride to eliminate erythrocytes, washed and resuspended in RPMI1640 medium supplemented with 10% fetal calf serum, Hepes buffer, L-glutamine, and penicillin/streptomycin. The cells were triple-stained for activated T cell subtypes using FITC-conjugatedanti-mouse CD44, phycoerythrin-conjugated anti-mouse CD62 antibodies, and allophycocyanin-conjugated anti-mouse CD4 and analyzed using a FACSCalibur."}, "Dendritic cells (DCs)": {"test_system": "Dendritic cells (DCs)", "assay": "IgA-IC stimulated dendritic cell maturation by flow cytometry", "assay_type": "cell-based, mouse", "conditions": "LCHK168 1, 2 μM, flow cytometry (FIG. 13)", "protocol": "as §4"}, "[4]": {"test_system": "mice model of IgA nephropathy (IgAN)", "assay": "Renal histopathology (H&E) in IgAN mice", "assay_type": "in vivo", "conditions": "day 28, 60 mg/kg daily oral gavage, vs disease control (FIG. 3)", "protocol": "as §1, §3\nBody weight was measured weekly. Urine samples were collected in metabolic cages weekly and urine protein was determined. […] The percentage of glomeruli showing proliferation, neutrophil infiltration, sclerosis, or periglomerular inflammation was determined by counting 50 randomly sampled glomeruli by light microscopy at a magnification of 400×."}, "[5]": {"conditions": "day 14, 60 mg/kg daily oral gavage, between disease control, IgAN+LCHK168 and normal control"}}, "data": [{"smiles": "CC(C)=CCC[C@](C)(O[C@@H]1OC(CO)[C@@H](O)[C@@H](O)C1O)[C@H]1CC[C@]2(C)C1[C@H](O)CC1[C@@]3(C)CC[C@H](O)C(C)(C)C3CC[C@]12C", "note": "(stereo partly drawn) [LCHK168, 20-O-β-D-glucopyranosyl-20(S)-protopanaxadiol]", "values": [{"measurement": "increase in renal tissues ROS levels", "setting": "[1]; day 14, 60 mg/kg daily oral gavage", "value": "greatly inhibited"}, {"measurement": "increase in ROS levels in renal tissues", "setting": "[1]; day 28, 60 mg/kg daily oral gavage", "value": "substantially inhibited"}, {"measurement": "renal infiltration of CD3+ T cells", "setting": "[2]; vs disease control (FIG. 4)", "value": "significantly decreased"}, {"measurement": "renal infiltration of F4/80+ monocytes/macrophages", "setting": "[2]; vs disease control (FIG. 5)", "value": "significantly decreased"}, {"measurement": "renal infiltration of CD4+ T cells", "setting": "[2]; vs disease control (FIG. 6)", "value": "significantly decreased"}, {"measurement": "renal infiltration of CD8+ T cells", "setting": "[2]; vs disease control (FIG. 7)", "value": "significantly decreased"}, {"measurement": "renal infiltration of CD11c+ dendritic cells", "setting": "[2]; vs disease control (FIG. 8)", "value": "significantly decreased"}, {"measurement": "renal fibrosis (Collagen IV staining)", "setting": "[2]; vs disease control (FIG. 9)", "value": "significantly decreased"}, {"measurement": "NLRP3 protein expression in DCs", "setting": "NLRP3", "value": "significantly decreased"}, {"measurement": "urine protein levels (ratio of urine protein to creatinine)", "setting": "[3]; IgAN mice, 60 mg/kg daily oral gavage, day 14 to day 28, vs vehicle-treated disease control (FIG. 1)", "value": "markedly inhibited"}, {"measurement": "proteinuria compared to normal untreated controls", "setting": "[3]; IgAN mice, 60 mg/kg daily oral gavage, vs normal untreated controls (FIG. 1)", "value": "mild proteinuria"}, {"measurement": "serum levels of BUN", "setting": "[3]; [5]", "value": "no significant difference"}, {"measurement": "serum levels of Cr", "setting": "[3]; [5]", "value": "no significant difference"}, {"measurement": "serum levels of BUN", "setting": "[3]; day 28, 60 mg/kg daily oral gavage, vs disease control (FIG. 2A)", "value": "much better renal function"}, {"measurement": "serum levels of Cr", "setting": "[3]; day 28, 60 mg/kg daily oral gavage, vs disease control (FIG. 2B)", "value": "much better renal function"}, {"measurement": "TLR2 mRNA levels in the kidney (relative to GAPDH)", "setting": "TLR2; 14 days, difference vs IgAN control mice (FIG. 12)", "value": "not statistically significant"}, {"measurement": "TLR2 mRNA levels in the kidney (relative to GAPDH)", "setting": "TLR2; 28 days, vs IgAN control mice (FIG. 12)", "value": "significantly lower"}, {"measurement": "memory CD4+ T cells in splenocytes", "setting": "memory CD4+ T cells", "value": "significant reduction"}, {"measurement": "expression level of CD40 in DCs", "setting": "Dendritic cells (DCs)", "value": "significantly lowered"}, {"measurement": "expression level of CD80 in DCs", "setting": "Dendritic cells (DCs)", "value": "significantly lowered"}, {"measurement": "expression level of CD86 in DCs", "setting": "Dendritic cells (DCs)", "value": "significantly lowered"}, {"measurement": "renal lesion (proliferation, crescents, sclerosis, neutrophil infiltration, periglomerular leukocyte infiltration, tubular atrophy)", "setting": "[4]", "value": "significantly inhibited"}]}]}
